Where a SMILES comes first, the peptide text is derived from it. [ ]: non-standard residue; d: D form. dGla = N[C@H](CC(C(=O)O)C(=O)O)C(=O)O; Cha = N[C@@H](CC1CCCCC1)C(=O)O
How the values were obtained:
[1] = Inhibition of Hepatitis C virus genotype 1b full-length NS3/NS4A protease assessed as overall/observed affinity by surface plasmon resonance biosensor-based interaction kinetic analysis; set-up: species or system Hepatitis C virus subtype 1b
[2] = Inhibition of Hepatitis C virus genotype 1b full-length NS3/NS4A protease assessed as equilibrium dissociation constant by surface plasmon resonance biosensor-based interaction kinetic analysis; set-up: species or system Hepatitis C virus subtype 1b
[3] = Inhibition of Hepatitis C virus genotype 1a full-length NS3/NS4A protease assessed as equilibrium dissociation constant by surface plasmon resonance biosensor-based interaction kinetic analysis; set-up: species or system Hepatitis C virus subtype 1a
[4] = Inhibition of Hepatitis C virus genotype 1a full-length NS3 protease assessed as equilibrium dissociation constant by surface plasmon resonance biosensor-based interaction kinetic analysis; set-up: species or system Hepatitis C virus subtype 1a
[5] = Inhibition of Hepatitis C virus genotype 1a full-length NS3 protease assessed as overall/observed affinity by surface plasmon resonance biosensor-based interaction kinetic analysis; set-up: species or system Hepatitis C virus subtype 1a
[6] = Inhibition of Hepatitis C virus genotype 1b full-length NS3 protease assessed as overall/observed affinity by surface plasmon resonance biosensor-based interaction kinetic analysis; set-up: species or system Hepatitis C virus subtype 1b
[7] = Inhibition of Hepatitis C virus genotype 3a full-length NS3 protease assessed as overall/observed affinity by surface plasmon resonance biosensor-based interaction kinetic analysis; set-up: species or system Hepatitis C virus subtype 3a
[8] = Inhibition of Hepatitis C virus genotype 1b NS3 protease domain assessed as equilibrium dissociation constant by surface plasmon resonance biosensor-based interaction kinetic analysis; set-up: species or system Hepatitis C virus subtype 1b
[9] = Inhibition of Hepatitis C virus genotype 1b full-length NS3 protease assessed as equilibrium dissociation constant by surface plasmon resonance biosensor-based interaction kinetic analysis; set-up: species or system Hepatitis C virus subtype 1b
[10] = Inhibition of Hepatitis C virus genotype 1b NS3 protease domain assessed as overall/observed affinity by surface plasmon resonance biosensor-based interaction kinetic analysis; set-up: species or system Hepatitis C virus subtype 1b
[11] = Inhibition of Hepatitis C virus genotype 1a full-length NS3/NS4A protease assessed as overall/observed affinity by surface plasmon resonance biosensor-based interaction kinetic analysis; set-up: species or system Hepatitis C virus subtype 1a
[12] = Inhibition of Hepatitis C virus genotype 3a full-length NS3 protease assessed as equilibrium dissociation constant by surface plasmon resonance biosensor-based interaction kinetic analysis; set-up: species or system Hepatitis C virus subtype 3a

| Compound | Kd [1] | Kd [2] | Kd [3] | Kd [4] | Kd [5] | Kd [6] | Kd [7] | Kd [8] | Kd [9] | Kd [10] | Kd [11] | Kd [12] |
| --- | --- | --- | --- | --- | --- | --- | --- | --- | --- | --- | --- | --- |
| CC[C@H](C)[C@H](NC(=O)[C@H](CC(C)C)NC(=O)[C@@H](CC(C(=O)O)C(=O)O)NC(=O)[C@H](CC(=O)O)NC(C)=O)C(=O)N[C@@H](CC1CCCCC1)C(=O)N[C@@H](CS)C(=O)O (Ac-D[dGla]LI[Cha]C-OH) | 2000 nM | 5800 nM | 36000 nM | 3900 nM | 200 nM | 5600 nM | 870 nM | 7200 nM | 7200 nM | 3300 nM | 17000 nM | 1400 nM |
| CC(C)(C)NC(=O)N[C@H](C(=O)N1C[C@H]2[C@@H]([C@H]1C(=O)NC(CC1CCC1)C(=O)C(N)=O)C2(C)C)C(C)(C)C (stereo partly specified) [BOCEPREVIR] | 38 nM | 7700 nM | – | – | – | 90 nM | 3.9 nM | 16000 nM | 16000 nM | 3200 nM | – | 1700 nM |
| COc1ccc2c(O[C@@H]3C[C@H]4C(=O)N[C@]5(C(=O)O)C[C@H]5/C=C\CCCCC[C@H](NC(=O)OC5CCCC5)C(=O)N4C3)cc(-c3csc(NC(C)C)n3)nc2c1 [CILUPREVIR] | 71 nM | 71 nM | 2.1 nM | 3 nM | 1.3 nM | 67 nM | 160 nM | 7.3 nM | 220 nM | 2.5 nM | 2.1 nM | 3300 nM |
| CC(C)(C)OC(=O)N[C@H]1CCCCC/C=C\[C@@H]2C[C@@]2(C(=O)NS(=O)(=O)C2CC2)NC(=O)[C@@H]2C[C@@H](OC(=O)N3Cc4cccc(F)c4C3)CN2C1=O [DANOPREVIR] | 6.5 nM | 6.5 nM | 4 nM | 2.5 nM | 0.13 nM | 1.6 nM | 0.52 nM | 19000 nM | 1.6 nM | 10000 nM | 1.6 nM | 21 nM |
| CCC[C@H](NC(=O)[C@@H]1[C@H]2CCC[C@H]2CN1C(=O)[C@@H](NC(=O)[C@@H](NC(=O)c1cnccn1)C1CCCCC1)C(C)(C)C)C(=O)C(=O)NC1CC1 [TELAPREVIR] | 66 nM | 67 nM | 14000 nM | 2000 nM | 340 nM | 8.5 nM | 1000 nM | 4100 nM | 8.6 nM | 3000 nM | 17 nM | 66000 nM |

Reference: ChEMBL document CHEMBL3120105, “Identification of weak points of hepatitis C virus NS3 protease inhibitors using surface plasmon resonance biosensor-based interaction kinetic analysis and genetic variants” (J Med Chem, 2014)
